The source of these data is patent US8702684B2, “Therapeutic hybrid implantable devices” (University of Miami, priority 2007, dated 2014).

Common to all, as to assay type: in vivo, rat
The test system of data set [1] is islet allografts in diabetic Lewis rats. Nature of the data set: Allogeneic islet graft survival in hybrid devices with local immunosuppression via micro-osmotic pump after weaning of systemic immunosuppression. As to conditions: local delivery by micro-osmotic pump 0.25 microL/h, dexamethasone phosphate 20 mg/L, loteprednol etabonate 0.2, 0.5, 10 mg/L, S1P receptor agonist 50 mg/L, controls rejected within 2 weeks of stopping systemic immunosuppression. An excerpt:
Forty days before islet transplantation, the rats were implanted with a hybrid device of the invention with a plunger-containing device in the subcutaneous space as described in Example 3. Allogeneic islets (7,000 IE isolated from Wistar Furth rats) were then deposited into the neovascularized spaces of the hybrid devices, and after the transplantation, the animals' glucose levels were monitored daily as described in Examples 1 and 3. Post-transplantation, all animals received systemic immunosuppression treatment consisting of a single-dose induction treatment with T-cell depleting anti-lymphocyte serum (ALS) given intravenously on day −3. Starting on the day of islet transplantation, systemic maintenance immunosuppression with mycophenolic acid (MPA, 20 mg/kg) was given daily orally for at least three weeks. […] After at least two weeks of treatment, systemic immunosuppression was tapered and discontinued, while the local immunosuppression was maintained. For example, a typical weaning protocol of systemic treatment consisted of 25% reduction of MPA for two consecutive days over an 8-day period. FIG. 25 illustrates an experimental protocol of transient systemic immunosuppression combined with local extended immunotherapy.
Starting on the day of islet transplantation, animals also received local immunosuppression delivered using a micro-osmotic pump such as the Alzet® 100 microL volume, 2-week continuous infusion, 0.25 microL/h delivery rate model 1002 pump (Durect Corp., Cupertino, Calif.). Both the device and the pump were implanted in the dorsal region of the rodents, and they were connected via a PE tubing. Animals were divided into controls receiving either local saline or no treatment and treatment groups receiving various immunosuppressive agents such as, for example, dexamethasone phosphate (20 mg/L), loteprednol etabonate (0.2, 0.5, and 10 mg/L), or a sphingosine-1-phosphate (S1P) receptor agonist (50 mg/L) from the micro-osmotic pump.

Data set [2] has as its system already-engrafted syngeneic islet grafts in rats. Briefly: Effect of systemic immunosuppression on already-engrafted functional syngeneic islet grafts. As to conditions: for animals returning to normoglycemia / recovering function after drug withdrawal: after 40 days treatment.
Data set [3] deals with syngeneic islet grafts in chemically-diabetic Lewis rats. Briefly: Effect of systemic immunosuppression given from day of syngeneic islet transplantation on engraftment and graft function in hybrid devices. As to conditions: for animals achieving normoglycemia at later times after withdrawal of immunosuppression: fraction of animals in group, single-drug treatment; for graft function while under treatment: syngeneic islets 3,000 IEQ, treatment from day of transplantation for 40 days, controls normoglycemic long-term. The method, then:
To assess the impact of conventional systemic immunosuppression on islet engraftment and function in prevascularized hybrid devices, we carried out syngeneic islet transplantation in chemically-diabetic Lewis rats that were treated with either rapamycin or tacrolimus (alone or in combination) as described in Example 3, starting from the day of islet transplantation, for 40 days. Control animals received no treatment.

“Also recorded” adds a separate entry of the source.

For `C[C@@H]1C[C@H]2[C@@H]3CCC4=CC(=O)C=C[C@]4(C)[C@@]3(F)[C@@H](O)C[C@]2(C)[C@@]1(O)C(=O)COP(=O)(O)O` [dexamethasone phosphate], the “allograft survival compared to control animals” value in data set [1] was “clear extension of allograft survival”; in data set [1] (listed as dexametasone phosphate) it was “sizable extension of allograft survival”.
Turning to `CCOC(=O)O[C@]1(C(=O)OCCl)CC[C@H]2[C@@H]3CCC4=CC(=O)C=C[C@]4(C)[C@H]3[C@@H](O)C[C@@]21C` [loteprednol etabonate], the “allograft survival compared to control animals” value in data set [1] was “clear extension of allograft survival; also recorded: sizable extension of allograft survival”.
Consider `CO[C@H]1C[C@@H]2CC[C@@H](C)[C@@](O)(O2)C(=O)C(=O)N2CCCC[C@H]2C(=O)O[C@H]([C@H](C)C[C@@H]2CC[C@@H](O)[C@H](OC)C2)CC(=O)[C@H](C)/C=C(\C)[C@@H](O)[C@@H](OC)C(=O)[C@H](C)C[C@H](C)/C=C/C=C/C=C/1C` [rapamycin, sirolimus], for which the “animals returning to normoglycemia / recovering function after drug withdrawal” value in data set [2] (already-engrafted graft) is given as “returned to normoglycemia”. The “animals displaying dysfunction while under treatment” value in data set [2] (fraction of animals, 40 days treatment of already-engrafted graft) is reported as “⅓”. For the same compound, in data set [3], the “animals achieving normoglycemia at later times after withdrawal of immunosuppression” value was “¼” and the “graft function while under treatment” value was “only partial function or primary non-function; also recorded: only partial or primary non-function”.
As for `C=CC[C@@H]1/C=C(\C)C[C@H](C)C[C@H](OC)[C@H]2O[C@@](O)(C(=O)C(=O)N3CCCC[C@H]3C(=O)O[C@H](/C(C)=C/[C@@H]3CC[C@@H](O)[C@H](OC)C3)[C@H](C)[C@@H](O)CC1=O)[C@H](C)C[C@@H]2OC` [tacrolimus], the “graft function under systemic immunosuppression administered for 40 days” value in data set [2] (already-engrafted graft, >=40 days post implantation) is “impaired graft function”. In data set [2] (already-engrafted graft), the “animals returning to normoglycemia / recovering function after drug withdrawal” value is “⅓”. Besides, in data set [3], the “animals achieving normoglycemia at later times after withdrawal of immunosuppression” value is listed as “¼” and the “graft function while under treatment” value is “only partial function or primary non-function; also recorded: only partial or primary non-function”.
